Data as given in publication PMC3280428 (Journal of Molecular Biology, 2011).
Several values for one entry are separate records, joined by “and”; a condition that tells them apart may be missing. Equal values may be shown once.

Tests used:
[1] = Cytotoxicity; type: cell-based; conditions: human
[2] = Cytotoxicity; type: cell-based; conditions: 129S2/SvPasCrl, mouse
[3] = biological target: T1, KIAA1718 Jumonji domain (residues 92–488) (Homo sapiens, UniProt Q6ZMT4); test: Mass-spectrometry-based demethylation inhibition assay, KIAA1718 Jumonji domain; type: biochemical
T1 sequence (Q6ZMT4 92-488): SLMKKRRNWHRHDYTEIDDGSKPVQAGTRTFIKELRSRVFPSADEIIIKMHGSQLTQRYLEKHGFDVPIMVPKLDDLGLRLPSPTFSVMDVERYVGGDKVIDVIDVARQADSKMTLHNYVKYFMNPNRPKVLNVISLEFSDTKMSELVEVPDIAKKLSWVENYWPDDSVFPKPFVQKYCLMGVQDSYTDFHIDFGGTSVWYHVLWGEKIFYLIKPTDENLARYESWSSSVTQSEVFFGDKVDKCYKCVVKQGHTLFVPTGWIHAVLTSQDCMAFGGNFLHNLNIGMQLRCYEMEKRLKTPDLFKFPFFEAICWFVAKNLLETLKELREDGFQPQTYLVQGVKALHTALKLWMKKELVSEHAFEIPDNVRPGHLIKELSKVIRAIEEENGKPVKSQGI

COc1cc2nc(N3CCCN(C)CC3)nc(NC3CCN(Cc4ccccc4)CC3)c2cc1OC [BIX-01294]
CC50 at 24 h [1]: 3.2 µM
CC50 at 24 h [2]: 7.4 µM
IC50 [3]: 16.5 µM and ~16.5 µM
Ki [3]: 15.3 µM
